# Reference: ChEMBL document CHEMBL3045788, “Effect of abamectin on root-knot nematodes and tomato yield” (Pest Manag Sci, 2012)
# The source made the active and inactive calls. The calls are words filed in the database; no cut-off is given here.
# What was measured:
# Meloidogyne incognita [1] = experiment: Nematicidal activity against second-stage juvenile Meloidogyne incognita (root-knot nematode) infested tomato field assessed as large fruit yield at 8 kg/hectare; assay type: functional
# Meloidogyne incognita [2] = experiment: Nematicidal activity against second-stage juvenile Meloidogyne incognita (root-knot nematode) infested tomato field assessed as reduction in root galling index at 8 kg/hectare measured after 30 days; assay type: functional, organism-based
# Meloidogyne incognita [3] = experiment: Nematicidal activity against second-stage juvenile Meloidogyne incognita (root-knot nematode) infested tomato field assessed as medium fruit yield at 8 kg/hectare; assay type: functional
# Meloidogyne incognita [4] = experiment: Nematicidal activity against second-stage juvenile Meloidogyne incognita (root-knot nematode) infested tomato field assessed as marketable yield at 8 kg/hectare; assay type: functional
# Meloidogyne incognita [5] = experiment: Nematicidal activity against second-stage juvenile Meloidogyne incognita (root-knot nematode) infested tomato plant under greenhouse condition assessed as reduction in root galling index at 8 kg/hectare measured after 30 days; assay type: functional, organism-based
# Meloidogyne incognita [6] = experiment: Nematicidal activity against second-stage juvenile Meloidogyne incognita (root-knot nematode) infested tomato field assessed as extra-large fruit yield at 8 kg/hectare; assay type: functional
# Meloidogyne incognita [7] = experiment: Nematicidal activity against second-stage juvenile Meloidogyne incognita (root-knot nematode) infested tomato plant under greenhouse condition assessed as fresh root weight at 8 kg/hectare measured after 30 days; assay type: functional
# Meloidogyne incognita [8] = experiment: Nematicidal activity against second-stage juvenile Meloidogyne incognita (root-knot nematode) infested tomato field assessed as reduction in number of nematodes in soil at 8 kg/hectare measured after 20 days; assay type: functional, organism-based
# Meloidogyne incognita [9] = experiment: Nematicidal activity against second-stage juvenile Meloidogyne incognita (root-knot nematode) infested tomato plant under greenhouse condition assessed as plant vigour at 8 kg/hectare measured after 30 days; assay type: functional
# Meloidogyne incognita [10] = experiment: Nematicidal activity against second-stage juvenile Meloidogyne incognita (root-knot nematode) infested tomato field assessed as reduction in number of nematodes in soil at 8 kg/hectare measured after 60 days; assay type: functional, organism-based
# Meloidogyne incognita [11] = experiment: Nematicidal activity against second-stage juvenile Meloidogyne incognita (root-knot nematode) infested tomato field assessed as plant vigour at 8 kg/hectare measured after 30 days; assay type: functional
# Meloidogyne incognita [12] = experiment: Nematicidal activity against second-stage juvenile Meloidogyne incognita (root-knot nematode) infested tomato plant under greenhouse condition assessed as plant height at 8 kg/hectare measured after 30 days; assay type: functional
# Meloidogyne incognita [13] = experiment: Nematicidal activity against second-stage juvenile Meloidogyne incognita (root-knot nematode) assessed as mortality after 48 hr; assay type: functional
# Meloidogyne incognita [14] = experiment: Nematicidal activity against second-stage juvenile Meloidogyne incognita (root-knot nematode) infested tomato field assessed as plant height at 8 kg/hectare measured after 50 days; assay type: functional
# Meloidogyne incognita [15] = experiment: Nematicidal activity against second-stage juvenile Meloidogyne incognita (root-knot nematode) infested tomato field assessed as reduction in number of nematodes in soil at 8 kg/hectare measured after 40 days; assay type: functional, organism-based
# Meloidogyne incognita [16] = experiment: Nematicidal activity against second-stage juvenile Meloidogyne incognita (root-knot nematode) infested tomato field assessed as plant height at 8 kg/hectare measured after 30 days; assay type: functional
smiles,measurement,setting,value
CCOP(=O)(SC(C)CC)SC(C)CC (configuration not stated) [CADUSAFOS],Activity,Meloidogyne incognita [1],19.9%
same,Activity,Meloidogyne incognita [2],Active
same,Activity,Meloidogyne incognita [3],41.6%
same,Activity,Meloidogyne incognita [4],68.7%
same,Activity,Meloidogyne incognita [5],Active
same,Activity,Meloidogyne incognita [6],7.2%
same,Activity,Meloidogyne incognita [7],1.13 g
same,Activity,Meloidogyne incognita [8],Active
same,Activity,Meloidogyne incognita [9],91%
same,Activity,Meloidogyne incognita [10],Active
same,Activity,Meloidogyne incognita [11],90%
same,Activity,Meloidogyne incognita [12],39.2 cm
same,LC50,Meloidogyne incognita [13],13.43 mgAi/L
same,LC90,Meloidogyne incognita [13],50.34 mgAi/L
same,Activity,Meloidogyne incognita [14],101.8 cm
same,Activity,Meloidogyne incognita [15],Active
same,Activity,Meloidogyne incognita [16],38.6 cm
